From US8513251B2, “Pyridazinone compounds” (Takeda Pharmaceutical Company Limited, priority 2009, dated 2013)
Read-outs that look alike come from different tables or passages of the source.

Biological target: T1, Human PDE10A enzyme (Homo sapiens, UniProt Q9Y233)
T1 construct: Human PDE10A enzyme was generated from Sf9 or COS-7 cells transfected with the full-length gene; His-tag; made in house; host or cells: Sf9 or COS-7 cells
Experiment: PDE enzyme inhibition, SPA (Scintillation Proximity Assay)
Assay type: biochemical
Conditions: for inhibition at 1 µM: compound at 1 μM, read-out: Percent inhibition (1 μM); for IC50: human PDE10A, [3H]cGMP substrate; for inhibition at 0.1 µM: read-out: Percent inhibition (0.1 μM)
Description: Human PDE10A enzyme was generated from Sf9 or COS-7 cells transfected with the full-length gene. Cloned enzyme was extracted from homogenized cell pellets. The extracted enzyme from Sf9 cells was partially purified using His-tag affinity column. The enzyme was stored at −70° C. until use. PDE activity was measured using a SPA (Scintillation Proximity Assay) (GE Healthcare). To evaluate the inhibitory activity, 10 μL of serial diluted compounds were incubated with 20 μL of PDE enzyme in assay buffer (50 mM HEPES-NaOH, 8.3 mM MgCl2, 1.7 mM EGTA, 0.1% BSA (pH 7.4)) for 30 min. at room temperature. Final concentration of DMSO in the assay was 1 percent as compounds were tested in duplicate in 96-well half-area plates (Corning). To start the reaction, 10 μL of substrate [3H] cGMP (25 or 50 nM; enclosed in SPA kits from GE Healthcare or purchased from PerkinElmer, respectively) was added for a final assay volume of 40 μL. After 60 min incubation at room temperature, yttrium SPA beads containing Zinc sulphate were added (20 μL at 6 mg/mL) to terminate the PDE reaction. After being settled for 60 min., assay plates were counted in a scintillation counter (PerkinElmer) to allow calculation of inhibition rate and IC50. Inhibition rate was calculated on the basis of 0% control wells with DMSO and 100% control wells without enzyme.

T1 sequence (Q9Y233 267-1055): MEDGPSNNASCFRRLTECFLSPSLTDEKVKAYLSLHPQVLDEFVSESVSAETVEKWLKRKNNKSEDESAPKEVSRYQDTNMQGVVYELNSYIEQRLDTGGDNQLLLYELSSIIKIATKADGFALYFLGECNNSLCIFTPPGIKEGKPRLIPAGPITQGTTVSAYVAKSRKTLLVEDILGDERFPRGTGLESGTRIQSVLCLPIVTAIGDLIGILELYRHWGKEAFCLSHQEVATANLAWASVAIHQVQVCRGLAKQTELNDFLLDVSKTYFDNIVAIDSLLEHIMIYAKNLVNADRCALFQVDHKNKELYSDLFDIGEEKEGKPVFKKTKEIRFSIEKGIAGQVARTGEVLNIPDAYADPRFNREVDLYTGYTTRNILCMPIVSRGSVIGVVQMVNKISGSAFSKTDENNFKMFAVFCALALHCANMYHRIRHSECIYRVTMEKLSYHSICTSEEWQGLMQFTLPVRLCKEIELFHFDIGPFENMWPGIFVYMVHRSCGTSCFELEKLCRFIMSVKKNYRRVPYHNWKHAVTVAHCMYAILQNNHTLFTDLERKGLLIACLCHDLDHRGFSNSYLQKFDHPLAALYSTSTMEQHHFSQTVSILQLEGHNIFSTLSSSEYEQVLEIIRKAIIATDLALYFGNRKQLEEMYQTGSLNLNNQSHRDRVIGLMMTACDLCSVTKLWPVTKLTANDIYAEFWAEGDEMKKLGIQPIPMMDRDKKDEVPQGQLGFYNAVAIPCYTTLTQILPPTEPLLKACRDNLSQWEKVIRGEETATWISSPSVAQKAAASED

Row | SMILES | inhibition at 1 µM (Table 1) [%] | IC50 (Table 1) [nM] | inhibition at 0.1 µM (Table 2, compound at 0.1 μM) [%] | IC50 (Table 2) [nM] | inhibition at 0.1 µM [%]
1 | N#Cc1ccc(-n2ccc(=O)c(-c3ccnn3-c3ccccc3)n2)cc1 [Example 46, 4-[4-Oxo-3-(1-phenyl-1H-pyrazol-5-yl)pyridazin-1(4H)-yl]benzonitrile] | 97 | 10 to 200 |  |  | 
2 | O=c1ccn(-c2ccc(S(=O)(=O)N3CCOCC3)cc2)nc1-c1ccnn1-c1ccccc1 [Example 48, 1-[4-(Morpholin-4-ylsulfonyl)phenyl]-3-(1-phenyl-1H-pyrazol-5-yl)pyridazin-4(1H)-one] | 100 | < 10 |  |  | 
3 | NC(=O)c1ccc(-n2ccc(=O)c(-c3ccnn3-c3ccccc3)n2)cc1 [Example 49, 4-[4-Oxo-3-(1-phenyl-1H-pyrazol-5-yl)pyridazin-1(4H)-yl]benzamide] | 98 | < 10 |  |  | 
4 | CCOc1cn(-c2cccc(C(F)(F)F)c2)nc(-c2ccnn2-c2ccccc2)c1=O [Example 59, 5-Ethoxy-3-(1-phenyl-1H-pyrazol-5-yl)-1-[3-(trifluoromethyl)phenyl]pyridazin-4(1H)-one] | 96 | 10 to 200 |  |  | 
5 | COc1cn(-c2ccc(N3CC(F)(F)C3)cc2F)nc(-c2ccnn2-c2ccccc2)c1=O [Example 102, 1-[4-(3,3-Difluoroazetidin-1-yl)-2-fluorophenyl]-5-methoxy-3-(1-phenyl-1H-pyrazol-5-yl)pyridazin-4(1H)-one] |  |  | 103 | < 10 | 
6 | COc1cn(-c2ccc(N3CC(F)(F)C(F)(F)C3)cc2F)nc(-c2ccnn2-c2ccccc2)c1=O [Example 104, 1-[2-Fluoro-4-(3,3,4,4-tetrafluoropyrrolidin-1-yl)phenyl]-5-methoxy-3-(1-phenyl-1H-pyrazol-5-yl)pyridazin-4(1H)-one] |  |  | 99 | < 10 | 
7 | COc1cn(-c2ccc(N3CCC(F)(F)CC3)cc2F)nc(-c2ccnn2-c2ccccc2)c1=O [Example 106, 1-[4-(4,4-Difluoropiperidin-1-yl)-2-fluorophenyl]-5-methoxy-3-(1-phenyl-1H-pyrazol-5-yl)pyridazin-4(1H)-one] |  |  | 100 | < 10 | 
8 | COc1cn(-c2ccc(-n3cccn3)cc2F)nc(-c2ccnn2-c2ccccc2)c1=O [Example 120, 1-[2-Fluoro-4-(1H-pyrazol-1-yl)phenyl]-5-methoxy-3-(1-phenyl-1H-pyrazol-5-yl)pyridazin-4(1H)-one] |  |  |  |  | 100
9 | COc1cn(-c2ccc(-n3cccn3)cc2F)nc(-c2ccnn2-c2cccc(Cl)c2)c1=O [Example 164, 3-[1-(3-Chlorophenyl)-1H-pyrazol-5-yl]-1-[2-fluoro-4-(1H-pyrazol-1-yl)phenyl]-5-methoxypyridazin-4(1H)-one] |  |  | 101 | < 10 | 
10 | COc1cn(-c2ccc(N3CCN(C)C3=O)cc2F)nc(-c2ccnn2-c2ccccc2)c1=O [Example 178, 1-[2-fluoro-4-(3-methyl-2-oxoimidazolidin-1-yl)phenyl]-5-methoxy-3-(1-phenyl-1H-pyrazol-5-yl)pyridazin-4(1H)-one] |  |  | 92 | < 10 | 

The next lines start with results.

Row | inhibition at 1 µM (Table 1) [%] | IC50 (Table 1) [nM] | inhibition at 0.1 µM (Table 2, compound at 0.1 μM) [%] | IC50 (Table 2) [nM] | SMILES | inhibition at 0.1 µM [%]
11 |  |  | 99 | < 10 | COc1cn(-c2ccc(N3CCC(F)(F)C3)cc2F)nc(-c2ccnn2-c2ccccc2)c1=O [Example 103, 1-[4-(3,3-Difluoropyrrolidin-1-yl)-2-fluorophenyl]-5-methoxy-3-(1-phenyl-1H-pyrazol-5-yl)pyridazin-4(1H)-one] | 
12 |  |  | 103 | < 10 | COc1cn(-c2ccc(N3CCCC3=O)cc2F)nc(-c2ccnn2-c2ccccc2)c1=O [Example 108, 1-[2-Fluoro-4-(2-oxopyrrolidin-1-yl)phenyl]-5-methoxy-3-(1-phenyl-1H-pyrazol-5-yl)pyridazin-4(1H)-one] | 
13 |  |  | 99 | < 10 | COc1cn(-c2ccc(N3CCOC3=O)cc2F)nc(-c2ccnn2-c2ccccc2)c1=O [Example 109, 1-[2-Fluoro-4-(2-oxo-1,3-oxazolidin-3-yl)phenyl]-5-methoxy-3-(1-phenyl-1H-pyrazol-5-yl)pyridazin-4(1H)-one] | 
14 |  |  | 97 | < 10 | COc1cn(-c2ccc(-n3ccnc3)cc2F)nc(-c2ccnn2-c2ccccc2)c1=O [Example 111, 1-[2-Fluoro-4-(1H-imidazol-1-yl)phenyl]-5-methoxy-3-(1-phenyl-1H-pyrazol-5-yl)pyridazin-4(1H)-one] | 
15 |  |  | 99 | < 10 | COc1cn(-c2cccc(-c3cnn(C)c3)c2F)nc(-c2ccnn2-c2ccccc2)c1=O [Example 113, 1-[2-Fluoro-3-(1-methyl-1H-pyrazol-4-yl)phenyl]-5-methoxy-3-(1-phenyl-1H-pyrazol-5-yl)pyridazin-4(1H)-one] | 
16 |  |  | 102 | < 10 | COc1cn(-c2ccc(-c3cnn(C)c3)cc2F)nc(-c2ccnn2-c2ccccc2)c1=O [Example 114, 1-[2-Fluoro-4-(1-methyl-1H-pyrazol-4-yl)phenyl]-5-methoxy-3-(1-phenyl-1H-pyrazol-5-yl)pyridazin-4(1H)-one] | 
17 |  |  | 99 | < 10 | COc1cn(-c2ccc(-c3cnn(C(F)F)c3)cc2F)nc(-c2ccnn2-c2ccccc2)c1=O [Example 116, 1-{4-[1-(Difluoromethyl)-1H-pyrazol-4-yl]-2-fluorophenyl}-5-methoxy-3-(1-phenyl-1H-pyrazol-5-yl)pyridazin-4(1H)-one] | 
18 |  |  | 100 | < 10 | COc1cn(-c2ccc(-n3cc(F)c(F)c3)cc2F)nc(-c2ccnn2-c2ccccc2)c1=O [Example 119, 1-[4-(3,4-Difluoro-1H-pyrrol-1-yl)-2-fluorophenyl]-5-methoxy-3-(1-phenyl-1H-pyrazol-5-yl)pyridazin-4(1H)-one] | 
19 |  |  | 99 | < 10 | COc1cn(-c2ccc(-n3nccc3OC(F)F)cc2F)nc(-c2ccnn2-c2ccccc2)c1=O [Example 123, 1-{4-[5-(Difluoromethoxy)-1H-pyrazol-1-yl]-2-fluorophenyl}-5-methoxy-3-(1-phenyl-1H-pyrazol-5-yl)pyridazin-4(1H)-one] | 
20 |  |  | 97 | < 10 | COc1cn(-c2ccc(-n3c(=O)ccn3C(F)F)cc2F)nc(-c2ccnn2-c2ccccc2)c1=O [Example 124, 1-{4-[2-(Difluoromethyl)-5-oxo-2,5-dihydro-1H-pyrazol-1-yl]-2-fluorophenyl}-5-methoxy-3-(1-phenyl-1H-pyrazol-5-yl)pyridazin-4(1H)-one] | 
21 |  |  | 101 | < 10 | COc1cn(-c2ccc(-n3cccn3)cc2F)nc(-c2ccnn2-c2ccccc2F)c1=O [Example 163, 3-[1-(2-Fluorophenyl)-1H-pyrazol-5-yl]-1-[2-fluoro-4-(1H-pyrazol-1-yl)phenyl]-5-methoxypyridazin-4(1H)-one] | 
22 |  |  | 96 | < 10 | COc1cn(-c2ccc(N3CC=CC3)cc2F)nc(-c2ccnn2-c2ccccc2)c1=O [Example 179, 1-[4-(2,5-Dihydro-1H-pyrrol-1-yl)-2-fluorophenyl]-5-methoxy-3-(1-phenyl-1H-pyrazol-5-yl)pyridazin-4(1H)-one] | 
23 |  |  | 96 | < 10 | COc1cn(-c2ccc(-n3cc(Cl)cn3)cc2F)nc(-c2ccnn2-c2ccccc2)c1=O [Example 180, 1-[4-(4-Chloro-1H-pyrazol-1-yl)-2-fluorophenyl]-5-methoxy-3-(1-phenyl-1H-pyrazol-5-yl)pyridazin-4(1H)-one] | 
